Assay results published in patent US20060106005A1, “Funtionalised metallocenes as anticancer drugs” (priority 2003, published 2006).
pIC50: −log10 of the molar value. Like-named read-outs stand apart in the source and are kept apart here.

Tests used:
A2780 = test: Sensitivity of cell lines to Cisplatin and Ti compounds (A2780); format: cell-based; conditions: for relative sensitivity of cell lines: A2780, relative to LoVo; for DIFFERENTIAL: IC50 of 2 relative to Cisplatin
LoVo = test: Sensitivity of cell lines to Cisplatin and Ti compounds (LoVo); format: cell-based; conditions: for relative sensitivity of cell lines: LoVo (reference line = 1)
LS 174T = test: Sensitivity of cell lines to Cisplatin and Ti compounds (LS 174T); format: cell-based; conditions: for relative sensitivity of cell lines: LS-174T, relative to LoVo
A2780-cis = test: Anti-proliferative effect on cisplatin-resistant A2780-cis; format: cell-based; conditions: for relative sensitivity of A2780 and A2780cis cell lines: relative to A2780 144 hr; for relative sensitivity of cell lines: relative to LoVo; for DIFFERENTIAL: IC50 of 2 relative to Cisplatin
Source text: In order to determine whether these types of complexes overcome platinum resistance in vitro, the anti-proliferative effects of 2 on cisplatin-resistant […] were examined (see Table 3).

MCF-7 = test: Sensitivity of cell lines to Cisplatin and Ti compounds (MCF-7); format: cell-based; conditions: for relative sensitivity of cell lines: MCF-7, relative to LoVo
LX1 = conditions: LX1, histologically unclassified lung tumour; cited from earlier work
[1] = tested on: xenografted tumours of the colon, head, breast, rectum, lung and stomach; conditions: in vivo; cited from earlier work
[2] = tested on: certain cancer cell lines; conditions: compared to Cp2TiCl2
[3] = A2780 (24 hour), read-out: IC50
[4] = A2780, exposure time 24 hr, relative to A2780 144 hr
[5] = A2780, exposure time 144 hr (reference = 1)
[6] = A2780-cis (24 hour), read-out: IC50

Compound	pIC50 (A2780; [3])	relative sensitivity of A2780 and A2780cis cell lines (A2780; [4])	relative sensitivity of A2780 and A2780cis cell lines (A2780; [5])	relative sensitivity of cell lines (A2780)	pIC50 (A2780; A2780, read-out: IC50)	pIC50 (LoVo; LoVo)	relative sensitivity of cell lines (LoVo)	pIC50 (LS 174T; LS 174T)	relative sensitivity of cell lines (LS 174T)	pIC50 (A2780-cis; [6])	pIC50 (A2780-cis; A2780-cis, read-out: IC50)	relative sensitivity of A2780 and A2780cis cell lines (A2780-cis; A2780cis, exposure time 24 hr)	relative sensitivity of A2780 and A2780cis cell lines (A2780-cis; A2780cis, exposure time 144 hr)	relative sensitivity of cell lines (A2780-cis; A2780cis)	relative sensitivity of cell lines (MCF-7)	anti-tumour activity against LX1 (LX1)	other results
N.N.[Cl][Pt][Cl] [Cisplatin, cisplatin, reference compound]	6.00	1.22	1	2.2	6.09	6.43	1	6.30	1.35	5.27	5.68	6.59	2.56	5.7	24.3	–	resistance relative to 2 (times more resistant) (A2780-cis; cisplatin-resistant A2780, after 144 hours): 3 times
C1=C[CH]([Ti+2][CH]2C=CC=C2)C=C1.[Cl-].[Cl-].[Ti+2].c1cc[cH-]c1.c1cc[cH-]c1 [Cp2TiCl2, titanocene (bis-cyclopentadienyl titanium)dichloride]	–	–	–	–	–	–	–	–	–	–	–	–	–	–	–	no significant anti-tumour activity	sensitivity of xenografted tumours [1]: significantly sensitive
[Cl-].[Cl-].[V+4].c1cc[cH-]c1.c1cc[cH-]c1 [Cp2VCl2, vanadocene(bis-cyclopentadienyl vanadium)dichloride]	–	–	–	–	–	–	–	–	–	–	–	–	–	–	–	significant activity	–
[Cp(CH2)2NH(CH2)5]2TiCl2.2HCl [compound 2]	3.77	5.42	1	0.5	4.51	4.21	1	4.44	0.58	3.81	4.55	4.97	0.90	0.45	1	–	DIFFERENTIAL (A2780; A2780 (24 hour)): 168 µM; pIC50 (A2780; A2780, 7 days, read-out: IC50 (7 days)): 4.00; DIFFERENTIAL (A2780; A2780): 37.8 µM; DIFFERENTIAL (LoVo; LoVo, IC50 of 2 relative to Cisplatin): 167.6 µM; DIFFERENTIAL (LS 174T; LS 174T, IC50 of 2 relative to Cisplatin): 72 µM; DIFFERENTIAL (A2780-cis; A2780-cis (24 hour)): 28.5 µM; DIFFERENTIAL (A2780-cis; A2780-cis): 13.3 µM; pIC50 (A2780-cis; A2780cis, 7 days, read-out: IC50 (7 days)): 5.37; potency relative to Cp2TiCl2 (times more potent) [2]: around 10 times; pIC50 (MCF-7; MCF-7): 4.21; DIFFERENTIAL (MCF-7; MCF-7, IC50 of 2 relative to Cisplatin): 6.9 µM
